Source: PMC3134468, “Functions of Some Capsular Polysaccharide Biosynthetic Genes in Klebsiella pneumoniae NTUH K-2044” (PLoS ONE, 2011)

Target: T1, WcaG (KP3709) (Klebsiella pneumoniae, UniProt A0ACD7U4D6)
T1 construct: His-tagged (pET28a), expressed in E. coli BL21 star (DE3)
Assay: HPLC product analysis
Type: biochemical
Details: coupled with Gmd from GDP-mannose, pH 8.0
Description: HPLC product analysis on WcaG (KP3709) | GDP-mannose+NADPH+KP3711+KP3709

NC(=O)C1=CN([C@@H]2O[C@H](COP(=O)(O)OP(=O)(O)OC[C@H]3O[C@@H](n4cnc5c(N)ncnc54)[C@H](OP(=O)(O)O)[C@@H]3O)[C@@H](O)[C@H]2O)C=CC1 [NADPH]
HPLC product analysis: GDP-mannose+NADPH+KP3711+KP3709
